Source: article PMC11538350, “Synthetic studies on the tetrasubstituted D-ring of cystobactamids lead to potent terephthalic acid antibiotics” (Communications Chemistry, 2024)
≈ marks a conversion by molar mass, not a printed value.

System: not listed separately
Assay: metabolic stability assay, mouse microsomes
Details: Table S4
In the case of C#CC[C@H](NC(=O)c1ccc(NC(=O)c2ccc(C#N)cc2)cc1)C(=O)Nc1ccc(C(=O)Nc2ccc(C(=O)Nc3ccc(C(=O)O)cc3)nc2OC(C)C)cc1 [Cmpd. 8], the “T1/2 MICROSOMES (M)” value is reported as greater than 1 h.

System: K. pneum. KP10581
Assay: MIC assay
Assay type: cell-based
Details: Klebsiella pneumoniae; read-out: MIC K. pneum. KP10581
Method: (§1) All cystobactamids were evaluated in MIC-assays on a panel of representative ESKAPE strains with focus on A. baumannii (Tables 1 and 2). Compared to our previous work[10],[17],[18], we specifically included more challenging test strains with known resistances against gyrase inhibitors.
(§2) 2.1 Materials and Methods
(§3) Strains were cultivated according to standard procedures. Bacterial cryo-cultures were
(§4) resuspended into fresh MHBII (cation adjusted) medium. The resuspension
(§5) assay plate (Corning, #3788).
(§6) in parallel as a positive control. […]
With C#CC[C@H](NC(=O)c1ccc(NC(=O)c2ccc(C#N)cc2)cc1)C(=O)Nc1ccc(C(=O)Nc2ccc(C(=O)Nc3ccc(C(=O)O)cc3)nc2OC(C)C)cc1 [Cmpd. 8] the MIC was greater than 64 µg/mL.

System: S. aur. ATCC-29213
Assay: MIC assay
Assay type: cell-based
Details: Staphylococcus aureus, ATCC29213; reference strain; read-out: MIC S. aur. ATCC-29213
Method: as §1, §2, §3, §4, §5, §6
C#CC[C@H](NC(=O)c1ccc(NC(=O)c2ccc(C#N)cc2)cc1)C(=O)Nc1ccc(C(=O)Nc2ccc(C(=O)Nc3ccc(C(=O)O)cc3)nc2OC(C)C)cc1 [Cmpd. 8] showed an MIC greater than 64 µg/mL.

System: E. cloacae ATCC BAA-2468
Assay: MIC assay
Assay type: cell-based
Details: Enterobacter cloacae, ATCCBAA2468; read-out: MIC E. cloacae ATCC BAA-2468
Method: as §1, §2, §3, §4, §5, §6
In the case of C#CC[C@H](NC(=O)c1ccc(NC(=O)c2ccc(C#N)cc2)cc1)C(=O)Nc1ccc(C(=O)Nc2ccc(C(=O)Nc3ccc(C(=O)O)cc3)nc2OC(C)C)cc1 [Cmpd. 8], the MIC is reported as greater than 64 µg/mL.

System: K. pneum. R-1525
Assay: MIC assay
Assay type: cell-based
Details: Klebsiella pneumoniae; read-out: MIC K. pneum. R-1525
Method: as §1, §2, §3, §4, §5, §6
For C#CC[C@H](NC(=O)c1ccc(NC(=O)c2ccc(C#N)cc2)cc1)C(=O)Nc1ccc(C(=O)Nc2ccc(C(=O)Nc3ccc(C(=O)O)cc3)nc2OC(C)C)cc1 [Cmpd. 8], the MIC was greater than 64 µg/mL.

System: E. coli ATCC-25922
Assay: MIC assay
Assay type: cell-based
Details: Escherichia coli, ATCC25922; reference strain; read-out: MIC E. coli ATCC-25922
Method: as §1, §2, §3, §4, §5, §6
In the case of C#CC[C@H](NC(=O)c1ccc(NC(=O)c2ccc(C#N)cc2)cc1)C(=O)Nc1ccc(C(=O)Nc2ccc(C(=O)Nc3ccc(C(=O)O)cc3)nc2OC(C)C)cc1 [Cmpd. 8], the MIC is reported as no more than 0.03 µg/mL.

System: A. baum. R835
Assay: MIC assay
Assay type: cell-based
Details: Acinetobacter baumannii; read-out: MIC A. baum. R835
Method: as §1, §2, §3, §4, §5, §6
In the case of C#CC[C@H](NC(=O)c1ccc(NC(=O)c2ccc(C#N)cc2)cc1)C(=O)Nc1ccc(C(=O)Nc2ccc(C(=O)Nc3ccc(C(=O)O)cc3)nc2OC(C)C)cc1 [Cmpd. 8], the MIC is reported as greater than 64 µg/mL.

System: E. coli LM705
Assay: MIC assay
Assay type: cell-based
Details: Escherichia coli, LM705, read-out: MIC E. coli LM705
Method: as §1, §2, §3, §4, §5, §6
With C#CC[C@H](NC(=O)c1ccc(NC(=O)c2ccc(C#N)cc2)cc1)C(=O)Nc1ccc(C(=O)Nc2ccc(C(=O)Nc3ccc(C(=O)O)cc3)nc2OC(C)C)cc1 [Cmpd. 8] the MIC was greater than 64 µg/mL.

System: A. baum. ATCC BAA-1710
Assay: MIC assay
Assay type: cell-based
Details: Acinetobacter baumannii, ATCCBAA1710; read-out: MIC A. baum. ATCC BAA-1710
Method: as §1, §2, §3, §4, §5, §6
Compound C#CC[C@H](NC(=O)c1ccc(NC(=O)c2ccc(C#N)cc2)cc1)C(=O)Nc1ccc(C(=O)Nc2ccc(C(=O)Nc3ccc(C(=O)O)cc3)nc2OC(C)C)cc1 [Cmpd. 8] has an MIC greater than 64 µg/mL.

System: A. baum. CIP-107292
Assay: MIC assay
Assay type: cell-based
Details: Acinetobacter baumannii, CIP107292; read-out: MIC A. baum. CIP-107292
Method: as §1, §2, §3, §4, §5, §6
In the case of C#CC[C@H](NC(=O)c1ccc(NC(=O)c2ccc(C#N)cc2)cc1)C(=O)Nc1ccc(C(=O)Nc2ccc(C(=O)Nc3ccc(C(=O)O)cc3)nc2OC(C)C)cc1 [Cmpd. 8], the MIC is reported as 8 µg/mL (≈ 10.3 µM).

System: not given
Assay: not given
Details: human plasma
Method: 2.1 Materials and Methods […]
Determination of in vitro ADME properties
7, 8, 11 and 42. All samples were analysed via HPLC -MS/MS.
HPLC-MS/MS analysis of cystobactamids
AB Sciex QTrap 6500plus mass spectrometer. LC conditions were as follows: column:
Samples were run under acidic
For plasma stability experiments, samples were procured from commercial sources.
Human plasma was obtained from Antibodies-online (catalog no. ABIN5706569), and mouse plasma was obtained from Tebubio (catalog no. D408-04-0050).
The methods were performed in accordance with relevant guidelines and regulations and approved by the Helmholtz Centre for Infection Research. […]
With C#CC[C@H](NC(=O)c1ccc(NC(=O)c2ccc(C#N)cc2)cc1)C(=O)Nc1ccc(C(=O)Nc2ccc(C(=O)Nc3ccc(C(=O)O)cc3)nc2OC(C)C)cc1 [Cmpd. 8] the “T1/2 PLASMA (H)” value was greater than 4 h.

Same assay, conditions: mouse plasma
In the case of C#CC[C@H](NC(=O)c1ccc(NC(=O)c2ccc(C#N)cc2)cc1)C(=O)Nc1ccc(C(=O)Nc2ccc(C(=O)Nc3ccc(C(=O)O)cc3)nc2OC(C)C)cc1 [Cmpd. 8], the “T1/2 PLASMA (M)” value is reported as greater than 4 h.

System: not listed separately
Assay: metabolic stability assay, human microsomes
Details: second microsome column of Table S4, head prints (M); mouse and human microsomes
In the case of C#CC[C@H](NC(=O)c1ccc(NC(=O)c2ccc(C#N)cc2)cc1)C(=O)Nc1ccc(C(=O)Nc2ccc(C(=O)Nc3ccc(C(=O)O)cc3)nc2OC(C)C)cc1 [Cmpd. 8], the “T1/2 MICROSOMES (M)” value is reported as greater than 1 h.

System: E. faec. DSM-17050 (VRE)
Assay: MIC assay
Assay type: cell-based, Enterococcus faecium
Details: Enterococcus; read-out: MIC E. faec. DSM-17050 (VRE)
Method: as §1, §2, §3, §4, §5, §6
In the case of C#CC[C@H](NC(=O)c1ccc(NC(=O)c2ccc(C#N)cc2)cc1)C(=O)Nc1ccc(C(=O)Nc2ccc(C(=O)Nc3ccc(C(=O)O)cc3)nc2OC(C)C)cc1 [Cmpd. 8], the MIC is reported as 0.25 µg/mL (≈ 0.321 µM).

System: E. ae. CIP 106754
Assay: MIC assay
Assay type: cell-based, Enterobacter aerogenes
Details: Klebsiella aerogenes, CIP106754, read-out: MIC E. ae. CIP 106754
Method: as §1, §2, §3, §4, §5, §6
C#CC[C@H](NC(=O)c1ccc(NC(=O)c2ccc(C#N)cc2)cc1)C(=O)Nc1ccc(C(=O)Nc2ccc(C(=O)Nc3ccc(C(=O)O)cc3)nc2OC(C)C)cc1 [Cmpd. 8] gave an MIC greater than 64 µg/mL.
